In US9556139B2, “6-substituted phenoxychroman carboxylic acid derivatives” (Array BioPharma Inc., priority 2008, dated 2017):

target: human DP2 (Homo sapiens (Human), UniProt Q9Y5Y4); test: DP-2 Binding Inhibition Assay (3H-PGD2 binding to membranes of K562 cells expressing DP2); conditions: EC50 (nM) 4% HSA, inhibition of 3H-PGD2 binding, 4% HSA
Summary of the method: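 Membranes from K562 stably expressing DP2, incubated 60 min at room temperature with ³H-PGD2 and compound in Tris pH 7.4 buffer with 0.1% BSA, 1% HSA or 4% HSA; filtration read-out. Nonspecific binding: 1 μM unlabeled PGD2 or 5 μM known antagonist. EC50 from 4-parameter logistic fit.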

human DP2, sequence (Q9Y5Y4 whole entry): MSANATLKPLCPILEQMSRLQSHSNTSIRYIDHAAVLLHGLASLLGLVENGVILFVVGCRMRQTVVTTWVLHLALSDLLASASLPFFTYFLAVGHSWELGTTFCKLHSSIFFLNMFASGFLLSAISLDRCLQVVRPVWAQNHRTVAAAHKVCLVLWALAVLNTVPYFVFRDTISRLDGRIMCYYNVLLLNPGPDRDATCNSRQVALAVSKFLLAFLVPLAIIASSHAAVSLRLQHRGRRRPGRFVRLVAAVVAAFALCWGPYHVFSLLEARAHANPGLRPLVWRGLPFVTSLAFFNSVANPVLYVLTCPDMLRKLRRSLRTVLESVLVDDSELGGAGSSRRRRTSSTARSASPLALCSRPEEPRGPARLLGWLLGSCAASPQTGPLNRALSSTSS

| Compound | EC50 [nM] |
| --- | --- |
| O=C(NCCc1ccc(Cl)cc1Cl)c1ccc(Oc2cc3c(cc2Cl)C(C(=O)O)CCO3)cc1 (single isomer, unassigned) [Example 106 Enantiomer 1, 6-chloro-7-(4-(2,4-dichlorophenethylcarbamoyl)phenoxy)chroman-4-carboxylic acid] | > 5000 |
| O=C(NCCc1ccccc1)c1ccc(Oc2cc3c(cc2Cl)C(C(=O)O)CCO3)cc1 (centres unmarked) [Example 12, Sodium 6-chloro-7-(4-(phenethylcarbamoyl)phenoxy)chroman-4-carboxylate] | 794 |

same assay, conditions: assay described in Example A

| Compound | relative activity of the enantiomers in the DP2 binding inhibition assay |
| --- | --- |
| O=C(NCCc1ccc(Cl)cc1Cl)c1ccc(Oc2cc3c(cc2Cl)C(C(=O)O)CCO3)cc1 (single isomer, unassigned) [Example 106 Enantiomer 1, 6-chloro-7-(4-(2,4-dichlorophenethylcarbamoyl)phenoxy)chroman-4-carboxylic acid] | less active than the sodium salt of Enantiomer 2 |

same assay, conditions: read-out: EC50 (Nm) 1% HSA; inhibition of 3H-PGD2 binding, 1% HSA

| Compound | EC50 [nM] |
| --- | --- |
| O=C(NCCc1ccc(Cl)cc1)c1ccc(Oc2cc3c(cc2Cl)C(C(=O)O)CCO3)cc1 (centres unmarked) [Example 10, 6-Chloro-7-(4-(4-chlorophenethylcarbamoyl)phenoxy)chroman-4-carboxylic acid] | 13.9 |
| N#Cc1cc2c(cc1Oc1ccc(C(=O)NCC3(c4ccc(Cl)cc4)CC3)cc1)OCCC2C(=O)O (centres unmarked) [Example 219, 7-(4-((1-(4-chlorophenyl)cyclopropyl)methylcarbamoyl)phenoxy)-6-cyanochroman-4-carboxylic acid] | 1040 |
| N#Cc1cc2c(cc1Oc1ccc(C(=O)Nc3ccc(C(F)(F)F)cc3)cc1)OCCC2C(=O)O (centres unmarked) [Example 75, 6-Cyano-7-(4-(4-(trifluoromethyl)phenylcarbamoyl)phenoxy)chroman-4-carboxylic acid] | 11.9 |
| N#Cc1cc2c(cc1Oc1ccc(C(=O)Nc3ccc4ccccc4c3)cc1)OCCC2C(=O)O (centres unmarked) [Example 76, 6-Cyano-7-(4-(naphthalen-2-ylcarbamoyl)phenoxy)chroman-4-carboxylic acid] | 6.7 |
| COc1cccc(CCNC(=O)c2ccc(Oc3cc4c(cc3C#N)C(C(=O)O)CCO4)cc2)c1 (centres unmarked) [Example 48, 7-(4-((3-Methoxyphenethyl)carbamoyl)phenoxy)-6-cyano-3,4-dihydro-2H-chromene-4-carboxylic acid] | 30.7 |
| N#Cc1cc2c(cc1Oc1ccc(C(=O)NOCc3ccc(Cl)cc3)cc1)OCCC2C(=O)O (centres unmarked) [Example 7, 7-(4-(4-Chlorobenzyloxycarbamoyl)phenoxy)-6-cyanochroman-4-carboxylic acid] | 19 |

same assay, conditions: read-out: EC50 (nM) 4% HSA; inhibition of 3H-PGD2 binding, 4% HSA

| Compound | EC50 [nM] |
| --- | --- |
| O=C(NCCc1ccc(Cl)cc1)c1ccc(Oc2cc3c(cc2C2CC2)C(C(=O)O)CCO3)cc1 (centres unmarked) [Example 41, Sodium 7-(4-(4-chlorophenethylcarbamoyl)phenoxy)-6-cyclopropylchroman-4-carboxylate] | 150 |
| O=C(NCCOc1ccccc1Cl)c1ccc(Oc2cc3c(cc2Cl)C(C(=O)O)CCO3)cc1 (centres unmarked) [Example 115, Sodium 6-chloro-7-(4-(2-(2-chlorophenoxyl)ethylcarbamoyl)phenoxy)chroman-4-carboxylate] | 2440 |
| O=C(NCCc1cc(Cl)ccc1Cl)c1ccc(Oc2cc3c(cc2Cl)C(C(=O)O)CCO3)cc1 (centres unmarked) [Example 103, Sodium 6-chloro-7-(4-(2,5-dichlorophenethylcarbamoyl)phenoxy)chroman-4-carboxylate] | 392 |
| O=C(NCCc1ccc(Cl)cc1)c1ccc(Oc2cc3c(cc2Cl)C(C(=O)O)CCO3)cc1 (centres unmarked) [Example 10, 6-Chloro-7-(4-(4-chlorophenethylcarbamoyl)phenoxy)chroman-4-carboxylic acid] | 225 |
| O=C(NCCc1ccc(F)cc1Cl)c1ccc(Oc2cc3c(cc2Cl)C(C(=O)O)CCO3)cc1 (centres unmarked) [Example 97, Sodium 6-chloro-7-(4-(2-chloro-4-fluorophenethylcarbamoyl)phenoxy)chroman-4-carboxylate] | 190 |
| O=C(NC(CO)Cc1ccc(Cl)cc1)c1ccc(Oc2cc3c(cc2Cl)C(C(=O)O)CCO3)cc1 (centres unmarked) [Example 178, Sodium 6-chloro-7-(4-(1-(4-chlorophenyl)-3-hydroxypropan-2-ylcarbamoyl)phenoxy)chroman-4-carboxylate] | 1730 |
| CC(C)(C)C1CCC(NC(=O)c2ccc(Oc3cc4c(cc3C#N)C(C(=O)O)CCO4)cc2)CC1 (centres unmarked) [Example 127, 7-(4-(4-tert-Butylcyclohexylcarbamoyl)phenoxy)-6-cyanochroman-4-carboxylic acid] | 270 |
| CSc1ccc(C2CCCC(NC(=O)c3ccc(Oc4cc5c(cc4Cl)C(C(=O)O)CCO5)cc3)C2)cc1 (centres unmarked) [Example 162, 6-Chloro-7-(4-(3-(4-(methylthio)phenyl)cyclohexylcarbamoyl)phenoxy)chroman-4-carboxylic acid] | 430 |
| O=C(NCC(O)c1ccccc1Cl)c1ccc(Oc2cc3c(cc2Cl)C(C(=O)O)CCO3)cc1 (centres unmarked) [Example 185, Sodium 6-chloro-7-(4-(2-(2-chlorophenyl)-2-hydroxyethylcarbamoyl)phenoxy)chroman-4-carboxylate] | 857 |
| O=C(NC1CCCC(c2ccccc2)C1)c1ccc(Oc2cc3c(cc2Cl)C(C(=O)O)CCO3)cc1 (centres unmarked) [Example 158, 6-Chloro-7-(4-(3-phenylcyclohexylcarbamoyl)phenoxy)chroman-4-carboxylic acid] | 1650 |
| COc1ccc(OC)c(CCNC(=O)c2ccc(Oc3cc4c(cc3Cl)C(C(=O)O)CCO4)cc2)c1 (centres unmarked) [Example 88, Sodium 6-chloro-7-(4-(2,5-dimethoxyphenethylcarbamoyl)phenoxy)chroman-4-carboxylate] | 203 |
| O=C(NCCc1cccc2c1OCO2)c1ccc(Oc2cc3c(cc2Cl)C(C(=O)O)CCO3)cc1 (centres unmarked) [Example 193, sodium 7-(4-(2-(benzo[d][1,3]dioxol-4-yl)ethylcarbamoyl)phenoxy)-6-chlorochroman-4-carboxylate] | 640 |
| O=C(NCC(F)(F)c1ccc(Cl)cc1)c1ccc(Oc2cc3c(cc2Cl)C(C(=O)O)CCO3)cc1 (centres unmarked) [Example 195, sodium 6-chloro-7-(4-(2-(4-chlorophenyl)-2,2-difluoroethylcarbamoyl)phenoxy)chroman-4-carboxylate] | 1150 |
| O=C(NCCc1ccccc1C1CC1)c1ccc(Oc2cc3c(cc2Cl)C(C(=O)O)CCO3)cc1 (centres unmarked) [Example 93, Sodium 6-chloro-7-(4-(2-cyclopropylphenethylcarbamoyl)phenoxy)chroman-4-carboxylate] | 107 |
| O=C(NCCc1ccc(Cl)cc1)c1ccc(Oc2c(Cl)cc3c(c2Br)OCCC3C(=O)O)cc1 (centres unmarked) [Example 38, Sodium 8-bromo-6-chloro-7-(4-(4-chlorophenethylcarbamoyl)phenoxy)chroman-4-carboxylate] | 366 |
| O=C(NC1CCN(c2cccc(C(F)(F)F)c2)CC1)c1ccc(Oc2cc3c(cc2Cl)C(C(=O)O)CCO3)cc1 (centres unmarked) [Example 123, Sodium 6-chloro-7-(4-(1-(3-(trifluoromethyl)phenyl)piperidin-4-ylcarbamoyl)phenoxy)chroman-4-carboxylate] | 259 |
| Cc1nccc(-c2cccc(NC(=O)c3ccc(Oc4cc5c(cc4C#N)C(C(=O)O)CCO5)cc3)c2)n1 (centres unmarked) [Example 70, 6-Cyano-7-(4-(3-(2-methylpyrimidin-4-yl)phenylcarbamoyl)phenoxy)chroman-4-carboxylic acid] | 995 |
| CCOc1ccc(CCNC(=O)c2ccc(Oc3cc4c(cc3Cl)C(C(=O)O)CCO4)cc2)c(OCC)c1 (centres unmarked) [Example 225, 6-chloro-7-(4-(2,4-diethoxyphenethylcarbamoyl)phenoxy)chroman-4-carboxylic acid] | 56 |
| O=C(NC1CCCC(c2ccc(Cl)cc2)C1)c1ccc(Oc2cc3c(cc2Cl)C(C(=O)O)CCO3)cc1 (centres unmarked) [Example 164, Sodium 6-chloro-7-(4-(3-(4-chlorophenyl)cyclohexylcarbamoyl)phenoxy)chroman-4-carboxylate] | 183 |
| N#Cc1cc2c(cc1Oc1ccc(C(=O)Nc3cccc(-c4ccccc4)c3)cc1)OCCC2C(=O)O (centres unmarked) [Example 67, 7-(4-(Biphenyl-3-ylcarbamoyl)phenoxy)-6-cyanochroman-4-carboxylic acid] | 173 |
| O=C(NCC/C=C\c1ccccc1Cl)c1ccc(Oc2cc3c(cc2Cl)C(C(=O)O)CCO3)cc1 (centres unmarked) [Example 16, Sodium (Z)-6-chloro-7-(4-(4-(2-chlorophenyl)but-3-enylcarbamoyl)phenoxy)chroman-4-carboxylate] | 318 |
| O=C(NCCCCc1ccc(Cl)cc1Cl)c1ccc(Oc2cc3c(cc2Cl)C(C(=O)O)CCO3)cc1 (centres unmarked) [Example 19, Sodium 6-chloro-7-(4-(4-(2,4-dichlorophenyl)butylcarbamoyl)phenoxy)chroman-4-carboxylate] | 638 |
| O=C(NCCc1ccc(F)cc1)c1ccc(Oc2cc3c(cc2Cl)C(C(=O)O)CCO3)cc1 (centres unmarked) [Example 85, Sodium 6-chloro-7-(4-(4-fluorophenethylcarbamoyl)phenoxy)chroman-4-carboxylate] | 344 |
| O=C(NCCc1ccc(Cl)cc1Cl)c1ccc(Oc2c(Cl)cc3c(c2C2CC2)OCCC3C(=O)O)cc1 (centres unmarked) [Example 43, Sodium 6-chloro-8-cyclopropyl-7-(4-(2,4-dichlorophenethylcarbamoyl)phenoxy)chroman-4-carboxylate] | 51.5 |
| O=C(NCCc1ccc(-c2ccccc2)cc1)c1ccc(Oc2cc3c(cc2Cl)C(C(=O)O)CCO3)cc1 (centres unmarked) [Example 59] | 158 |
| Cc1ccc(C2CCCC(NC(=O)c3ccc(Oc4cc5c(cc4Cl)C(C(=O)O)CCO5)cc3)C2)cc1 (centres unmarked) [Example 160, 6-Chloro-7-(4-(3-(4-methylphenyl)cyclohexylcarbamoyl)phenoxy)chroman-4-carboxylic acid] | 350 |
| COc1cc(CCNC(=O)c2ccc(Oc3cc4c(cc3C#N)C(C(=O)O)CCO4)cc2)ccc1Cl (centres unmarked) [Example 133, 7-(4-(4-Chloro-3-methoxyphenethylcarbamoyl)phenoxy)-6-cyanochroman-4-carboxylic acid] | 625 |
| CC(C)(C)c1cccc(NC(=O)c2ccc(Oc3cc4c(cc3C#N)C(C(=O)O)CCO4)cc2)c1 (centres unmarked) [Example 134, 7-(4-(3-tert-Butylphenylcarbamoyl)phenoxy)-6-cyanochroman-4-carboxylic acid] | 112 |
| COc1ccc(C2CCCC(NC(=O)c3ccc(Oc4cc5c(cc4Cl)C(C(=O)O)CCO5)cc3)C2)cc1 (centres unmarked) [Example 161, 6-Chloro-7-(4-(3-(4-methoxyphenyl)cyclohexylcarbamoyl)phenoxy)chroman-4-carboxylic acid] | 1120 |
